Reference: patent US5436229A, “Bisulfite adducts of arginine aldehydes” (Eli Lilly and Company, priority 1994, dated 1995)

Assays:
human thrombin = human thrombin (Homo sapiens, UniProt P00734); assay: Thrombin amidase inhibition (Kass), chromogenic substrate; type: biochemical
Outline: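 Purified human thrombin (8 NIH units/ml solution) mixed with compound in 50% aqueous methanol and 0.03M Tris, 0.15M NaCl, pH 7.4; chromogenic substrate (0.25 mg/ml solution) added, p-nitroaniline release followed at 405 nm. Free thrombin read from a standard curve; Kass (L/mol) is the mean over a range of compound concentrations.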

[1] = Index of Bioavailability (plasma TT AUC, oral vs i.v.); type: in vivo; conditions: rats, oral vs i.v. bolus
Description: Assays are done in duplicate and averaged.
Each sample population represents alternating sequential time points.

human plasma [2] = assay: Human plasma anticoagulation, activated partial thromboplastin time (APTT); type: biochemical
Outline: (§1)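 Compounds added across a wide concentration range to human plasma; APTT, PT and TT clotting times measured on a coagulation instrument, bovine thrombin used for plasma assays. Concentration doubling clotting time estimated by linear extrapolation.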

Human plasmin = target: T1, Human plasmin (Homo sapiens, UniProt P00747); assay: Serine protease inhibition (Kass), plasmin; type: biochemical
T1 construct: Human plasmin is purchased from Boehringer Mannheim; purchased Boehringer Mannheim, Indianapolis, Ind
T1 sequence (P00747 581-810 limits assumed): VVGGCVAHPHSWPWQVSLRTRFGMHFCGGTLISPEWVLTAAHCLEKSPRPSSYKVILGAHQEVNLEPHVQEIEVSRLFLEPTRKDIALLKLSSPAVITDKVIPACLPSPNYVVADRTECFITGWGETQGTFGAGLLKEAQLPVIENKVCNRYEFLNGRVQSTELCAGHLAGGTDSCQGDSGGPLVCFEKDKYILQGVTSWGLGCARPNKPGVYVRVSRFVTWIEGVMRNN
T1 sequence (P00747 97-580 partner limits assumed): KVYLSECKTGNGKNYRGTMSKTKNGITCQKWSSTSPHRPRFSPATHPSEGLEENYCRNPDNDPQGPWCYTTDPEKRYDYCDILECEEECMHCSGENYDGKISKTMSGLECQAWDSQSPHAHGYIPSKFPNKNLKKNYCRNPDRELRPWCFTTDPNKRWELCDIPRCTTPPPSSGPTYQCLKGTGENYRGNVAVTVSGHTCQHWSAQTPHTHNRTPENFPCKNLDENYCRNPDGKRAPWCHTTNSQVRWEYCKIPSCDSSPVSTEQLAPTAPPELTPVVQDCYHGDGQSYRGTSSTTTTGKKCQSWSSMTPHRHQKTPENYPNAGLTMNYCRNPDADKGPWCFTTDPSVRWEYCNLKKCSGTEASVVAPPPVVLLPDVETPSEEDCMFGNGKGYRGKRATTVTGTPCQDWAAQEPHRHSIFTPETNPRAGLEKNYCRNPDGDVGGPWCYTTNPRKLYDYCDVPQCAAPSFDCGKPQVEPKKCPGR
Outline: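 Chromogenic enzyme assays run as for human thrombin, giving association constants (Kass). Human plasmin used with H-D-Val-Leu-Lys-p-nitroanilide; t-PA (single-chain nt-PA or modified mt-PA6) with H-D-Ile-Pro-Arg-p-nitroanilide.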

[3] = target: T2, tissue plasminogen activator (t-PA) (Homo sapiens, UniProt P00750); assay: Serine protease inhibition (Kass), t-PA; type: biochemical
T2 construct: purchased American Diagnostica, Greenwich, Conn
T2 sequence (P00750 36-562): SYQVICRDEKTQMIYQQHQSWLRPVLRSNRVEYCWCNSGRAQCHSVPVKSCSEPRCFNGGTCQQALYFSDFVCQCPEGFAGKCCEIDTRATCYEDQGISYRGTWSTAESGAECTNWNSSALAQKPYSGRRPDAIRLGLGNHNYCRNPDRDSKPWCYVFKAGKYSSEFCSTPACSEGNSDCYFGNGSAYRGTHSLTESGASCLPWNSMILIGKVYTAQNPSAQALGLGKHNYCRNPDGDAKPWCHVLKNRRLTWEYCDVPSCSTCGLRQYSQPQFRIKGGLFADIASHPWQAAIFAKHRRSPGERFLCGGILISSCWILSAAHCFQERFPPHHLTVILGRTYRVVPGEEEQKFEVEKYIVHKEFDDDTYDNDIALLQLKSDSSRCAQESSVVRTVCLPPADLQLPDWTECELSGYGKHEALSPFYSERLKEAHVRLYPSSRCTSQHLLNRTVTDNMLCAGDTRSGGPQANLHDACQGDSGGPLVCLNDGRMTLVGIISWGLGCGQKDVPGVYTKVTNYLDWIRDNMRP

human plasma [4] = assay: Human plasma anticoagulation, prothrombin time (PT); type: biochemical
Outline: as §1

Bovine trypsin = target: T3, Bovine trypsin (Bos taurus, UniProt P00760); assay: Serine protease inhibition (Kass), trypsin; type: biochemical
T3 construct: Bovine trypsin is purchased from Worthington Biochemicals; purchased Worthington Biochemicals, Freehold, N.J
T3 sequence (P00760 24-246): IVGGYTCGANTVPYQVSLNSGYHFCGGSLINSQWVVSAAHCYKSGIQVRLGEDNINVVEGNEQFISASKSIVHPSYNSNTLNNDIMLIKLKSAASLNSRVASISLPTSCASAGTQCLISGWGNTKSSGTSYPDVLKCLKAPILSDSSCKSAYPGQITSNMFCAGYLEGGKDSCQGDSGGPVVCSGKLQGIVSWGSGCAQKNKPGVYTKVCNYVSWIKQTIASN
Outline: (§2)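 Chromogenic p-nitroanilide substrate assays run as for human thrombin; trypsin with N-Benzoyl-Phe-Val-Arg-p-nitroanilide, human factor Xa with N-Benzoyl-Ile-Glu-Gly-Arg-p-nitroanilide. Values are association constants (Kass).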

human plasma [5] = assay: Human plasma anticoagulation, thrombin time (TT); type: biochemical
Outline: as §1

factor Xa = target: T4, factor Xa (Homo sapiens, UniProt P00742); assay: Serine protease inhibition (Kass), factor Xa; type: biochemical
T4 construct: Human factors X, Xa, IXa, XIa, and XIIa are purchased from Enzyme Research Laboratories; purchased Enzyme Research Laboratories, South Bend, Ind
T4 sequence (P00742 235-488 limits assumed): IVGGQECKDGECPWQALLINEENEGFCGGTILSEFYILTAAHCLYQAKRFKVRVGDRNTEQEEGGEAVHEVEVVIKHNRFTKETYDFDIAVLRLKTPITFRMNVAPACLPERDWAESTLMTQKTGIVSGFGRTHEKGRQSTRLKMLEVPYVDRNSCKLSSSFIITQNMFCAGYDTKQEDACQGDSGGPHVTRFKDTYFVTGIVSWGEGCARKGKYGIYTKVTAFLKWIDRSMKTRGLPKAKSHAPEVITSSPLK
T4 sequence (P00742 41-179 partner limits assumed): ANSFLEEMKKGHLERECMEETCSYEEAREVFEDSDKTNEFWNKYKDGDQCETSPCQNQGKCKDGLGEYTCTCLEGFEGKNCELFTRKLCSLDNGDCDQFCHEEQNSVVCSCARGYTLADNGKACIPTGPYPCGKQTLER
Outline: as §2

| Kass Human Thrombin (human thrombin) | Kass Plasmin (Human plasmin) | Kass t-PA [3] | Kass Trypsin (Bovine trypsin) | Kass Xa (factor Xa) | SMILES | Percent Relative Activity (Index of Bioavailability) [1] | 2 × Clotting time APTT (human plasma [2]) | 2 × Clotting time PT (human plasma [4]) | 2 × Clotting time TT (human plasma [5]) |
| --- | --- | --- | --- | --- | --- | --- | --- | --- | --- |
| 200 L/mol × 10^6 | 9.5 L/mol × 10^6 | 1.5 L/mol × 10^6 | 150 L/mol × 10^6 | 8.8 L/mol × 10^6 | COc1ccc(OC)c(S(=O)(=O)N[C@H](Cc2ccccc2)C(=O)N2CCC[C@H]2C(=O)N[C@H](C=O)CCCNC(=N)N)c1.Cl [Example 59, N-(2,5-dimethoxyphenylsulfonyl)-D-phenylalanyl-L-Prolinyl-L-Arginine Aldehyde Hydrochloride] |  | 550 ng/mL | 2,000 ng/mL | 92 ng/mL |
| 260 L/mol × 10^6 | 18 L/mol × 10^6 | 2.7 L/mol × 10^6 | 200 L/mol × 10^6 | 11 L/mol × 10^6 | Cc1noc(C)c1S(=O)(=O)N[C@H](Cc1ccccc1)C(=O)N1CCC[C@H]1C(=O)N[C@H](C=O)CCCNC(=N)N.Cl [Example 60, N-(3,5-dimethyl-4-isoxazolylsulfonyl)-D-phenylalanyl-L-Prolinyl-L-Arginine Aldehyde Hydrochloride] |  | 430 ng/mL | 1,300 ng/mL | 33 ng/mL |
| 68 L/mol × 10^6 | 3.4 L/mol × 10^6 | 0.31 L/mol × 10^6 | 52 L/mol × 10^6 | 2.8 L/mol × 10^6 | Cl.N=C(N)NCCC[C@@H](C=O)NC(=O)[C@@H]1CCCN1C(=O)[C@@H](Cc1ccccc1)NS(=O)(=O)c1nccs1 [Example 63, N-(2-thiazolylsulfonyl)-D-phenylalanyl-L-Prolinyl-L-Arginine Aldehyde Hydrochloride] |  | 810 ng/mL | 2,900 ng/mL | 66 ng/mL |
| 510 L/mol × 10^6 | 14 L/mol × 10^6 | 0.34 L/mol × 10^6 | 160 L/mol × 10^6 | 45 L/mol × 10^6 | CCS(=O)(=O)N[C@@H](C(=O)N1CCC[C@H]1C(=O)N[C@H](C=O)CCCNC(=N)N)c1ccccc1.Cl [Example 64, N-(ethylsulfonyl)-D-phenylglycinyl-L-Prolinyl-L-Arginine Aldehyde Hydrochloride] |  | 250 ng/mL | 880 ng/mL | 34 ng/mL |
| 3.4 L/mol × 10^6 | 0.28 L/mol × 10^6 | 0.11 L/mol × 10^6 | 14 L/mol × 10^6 | 0.066 L/mol × 10^6 | CC(=O)N[C@H](Cc1ccccc1)C(=O)N1CCC[C@H]1C(=O)N[C@H](C=O)CCCNC(=N)N.Cl [Example 67, N-(acetyl)-D-phenylalanyl-L-Prolinyl-L-Arginine Aldehyde Hydrochloride] |  | 2,700 ng/mL | 4,100 ng/mL | 140 ng/mL |
| 33 L/mol × 10^6 | 3.8 L/mol × 10^6 | 0.30 L/mol × 10^6 | 57 L/mol × 10^6 | 0.29 L/mol × 10^6 | COCC(=O)N[C@H](Cc1ccccc1)C(=O)N1CCC[C@H]1C(=O)N[C@H](C=O)CCCNC(=N)N.Cl [Example 68, N-(methoxyacetyl)-D-phenylalanyl-L-Prolinyl-L-Arginine Aldehyde Hydrochloride] |  | 440 ng/mL | 1,200 ng/mL | 38 ng/mL |
| 26 L/mol × 10^6 | 0.31 L/mol × 10^6 | 0.17 L/mol × 10^6 | 15 L/mol × 10^6 | 0.033 L/mol × 10^6 | Cl.N=C(N)NCCC[C@@H](C=O)NC(=O)[C@@H]1CCCN1C(=O)[C@@H](Cc1ccccc1)NC(=O)C(F)(F)F [Example 69, N-(trifluoroacetyl)-D-phenylalanyl-L-Prolinyl-L-Arginine Aldehyde Hydrochloride] |  | 1,300 ng/mL | 1,800 ng/mL | 59 ng/mL |
| 29 L/mol × 10^6 | 0.54 L/mol × 10^6 | 0.37 L/mol × 10^6 | 14 L/mol × 10^6 | 0.10 L/mol × 10^6 | Cl.N=C(N)NCCC[C@@H](C=O)NC(=O)[C@@H]1CCCN1C(=O)[C@@H](Cc1ccccc1)NC(=O)Cc1ccccc1 [Example 70, N-(phenylacetyl)-D-phenylalanyl-L-Prolinyl-L-Arginine Aldehyde Hydrochloride] |  | 1,100 ng/mL | 2,000 ng/mL | 64 ng/mL |
| 43 L/mol × 10^6 | 0.86 L/mol × 10^6 | 0.62 L/mol × 10^6 | 15 L/mol × 10^6 | 0.32 L/mol × 10^6 | CCCN(CCC)S(=O)(=O)c1ccc(C(=O)N[C@H](Cc2ccccc2)C(=O)N2CCC[C@H]2C(=O)N[C@H](C=O)CCCNC(=N)N)cc1.Cl [Example 73, N-(4-di-n-propylaminosulfonylbenzoyl)-D-phenylalanyl-L-Prolinyl-L-Arginine Aldehyde Hydrochloride] |  | 3,500 ng/mL | 4,800 ng/mL | 150 ng/mL |

| SMILES | Kass Human Thrombin (human thrombin) | Kass Plasmin (Human plasmin) | Kass t-PA [3] | Kass Trypsin (Bovine trypsin) | Kass Xa (factor Xa) | Percent Relative Activity (Index of Bioavailability) [1] | 2 × Clotting time APTT (human plasma [2]) | 2 × Clotting time PT (human plasma [4]) | 2 × Clotting time TT (human plasma [5]) |
| --- | --- | --- | --- | --- | --- | --- | --- | --- | --- |
| Cl.Cl.N=C(N)NCCC[C@@H](C=O)NC(=O)[C@@H]1CCCN1C(=O)C1NCCCC2CCCCC21 (mixture of isomers) [Example 8, DL-cis-3-aza-bicyclo[5.4.0]undecanyl-2-carbonyl-L-prolinyl-L-arginine aldehyde dihydrochloride] | 595 L/mol × 10^6 |  |  |  |  | 43% |  |  |  |
| Cl.Cl.Cl.N=C(N)NCCC[C@@H](C=O)NC(=O)[C@@H]1CCCN1C(=O)[C@H]1C[C@@H](Oc2ccccc2)CN1.O (relative stereo) [Example 12, D-Cis-(4-phenoxy)Prolinyl-L-Prolinyl-L-Arginine Aldehyde Trihydrochloride Monohydrate] | 25 L/mol × 10^6 |  |  |  |  | 16% |  |  |  |
| CCS(=O)(=O)N[C@@H](C(=O)N1CCC[C@H]1C(=O)N[C@H](C=O)CCCNC(=N)N)C1CCCCC1.Cl [Example 66, N-(ethylsulfonyl)-D-cyclohexylglycinyl-L-Prolinyl-L-Arginine Aldehyde Hydrochloride] | 260 L/mol × 10^6 | 13 L/mol × 10^6 | 0.11 L/mol × 10^6 | 260 L/mol × 10^6 | 24 L/mol × 10^6 |  | 330 ng/mL | 1,100 ng/mL | 46 ng/mL |
| Cl.N=C(N)NCCC[C@@H](C=O)NC(=O)[C@@H]1CCCN1C(=O)[C@@H](Cc1ccccc1)NC(=O)C1CCCCC1 [Example 71, N-(cylohexoyl)-D-phenylalanyl-L-Prolinyl-L-Arginine Aldehyde Hydrochloride] | 20 L/mol × 10^6 | 0.24 L/mol × 10^6 | 0.26 L/mol × 10^6 | 5.9 L/mol × 10^6 | 0.064 L/mol × 10^6 |  | 1,300 ng/mL | 1,800 ng/mL | 63 ng/mL |
| CCNC(=O)N[C@H](Cc1ccccc1)C(=O)N1CCC[C@H]1C(=O)N[C@H](C=O)CCCNC(=N)N.Cl [Example 76, N-(ethylaminocarbonyl)-D-phenylalanyl-L-Prolinyl-L-Arginine Aldehyde Hydrochloride] | 25 L/mol × 10^6 | 2.0 L/mol × 10^6 | 0.54 L/mol × 10^6 | 60 L/mol × 10^6 | 0.21 L/mol × 10^6 |  | 1,100 ng/mL | 1,700 ng/mL | 63 ng/mL |
| CCOC(=O)N[C@H](CC1CCCCC1)C(=O)N1CCC[C@H]1C(=O)N[C@H](C=O)CCCNC(=N)N.Cl [Example 78, N-(ethoxycarbonyl)-D-cyclohexylalanyl-L-prolinyl-L-Arginine Aldehyde Hydrochloride] | 360 L/mol × 10^6 | 26 L/mol × 10^6 | 0.75 L/mol × 10^6 | 140 L/mol × 10^6 | 8.1 L/mol × 10^6 |  | 410 ng/mL | 890 ng/mL | 48 ng/mL |
